Several values for one entry are separate records, joined by “and”; a condition that tells them apart may be missing. Equal entries are not always repeated.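 Briefly, cells in 96-well plates were exposed to five compound concentrations for 48 h, and endpoints were estimated by linear interpolation. At the GI50, growth is halved. TGI is the concentration that stops growth completely.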
Experiments:
Experiment in all cases: NCI tumour cell line growth inhibition, 48 h
MOLT-4 leukemia = system: MOLT-4 leukemia
DU-145 prostate = system: DU-145 prostate
SNB-75 CNS = system: SNB-75 CNS
SK-MEL-5 melanoma = system: SK-MEL-5 melanoma
A498 renal = system: A498 renal
UACC-62 melanoma = system: UACC-62 melanoma
RPMI-8226 leukemia = system: RPMI-8226 leukemia
SF-268 CNS = system: SF-268 CNS
HCT-116 colon = system: HCT-116 colon
K-562 leukemia = system: K-562 leukemia
COLO 205 colon = system: COLO 205 colon
OVCAR-5 ovarian = system: OVCAR-5 ovarian
IGROV1 ovarian = system: IGROV1 ovarian
M14 melanoma = system: M14 melanoma
SN12C renal = system: SN12C renal
SW-620 colon = system: SW-620 colon
NCI-H522 lung = system: NCI-H522 lung
NCI-H226 lung = system: NCI-H226 lung
BT-549 breast = system: BT-549 breast
HCT-15 colon = system: HCT-15 colon
SK-MEL-28 melanoma = system: SK-MEL-28 melanoma
MDA-MB-435 = system: MDA-MB-435
SK-MEL-2 melanoma = system: SK-MEL-2 melanoma
MCF7 breast = system: MCF7 breast
HOP-92 NSCLC = system: HOP-92 NSCLC
U251 CNS = system: U251 CNS
ACHN renal = system: ACHN renal
HL-60(TB) leukemia = system: HL-60(TB) leukemia
HS 578T breast = system: HS 578T breast
OVCAR-3 ovarian = system: OVCAR-3 ovarian
CAKI-1 renal = system: CAKI-1 renal
SNB-19 CNS = system: SNB-19 CNS
SK-OV-3 ovarian = system: SK-OV-3 ovarian
SF-295 CNS = system: SF-295 CNS
HT29 colon = system: HT29 colon
NCI/ADR-RES ovarian = system: NCI/ADR-RES ovarian
HOP-62 NSCLC = system: HOP-62 NSCLC
LOX IMVI melanoma = system: LOX IMVI melanoma
RXF 393 renal = system: RXF 393 renal
SF-539 CNS = system: SF-539 CNS
A549 NSCLC = system: A549 NSCLC
CCRF-CEM leukemia = system: CCRF-CEM leukemia
SR leukemia = system: SR leukemia
PC-3 prostate = system: PC-3 prostate
HCC-2998 colon = system: HCC-2998 colon
EKVX NSCLC = system: EKVX NSCLC
OVCAR-8 ovarian = system: OVCAR-8 ovarian
786-0 renal = system: 786-0 renal
UACC-257 melanoma = system: UACC-257 melanoma
MALME-3M melanoma = system: MALME-3M melanoma
KM12 colon = system: KM12 colon
UO-31 renal = system: UO-31 renal
OVCAR-4 ovarian = system: OVCAR-4 ovarian
T-47D breast = system: T-47D breast
TK-10 renal = system: TK-10 renal
MDA-MB-231 breast = system: MDA-MB-231 breast
NCI-H23 lung = system: NCI-H23 lung
NCI-H460 lung = system: NCI-H460 lung

C[C@]12CC[C@H](OC3OC(O)C(O)C(O)C3O)C=C1CCC1C2CC[C@]2(C)[C@@H](c3ccc(=O)oc3)CC[C@]12O (stereo not given in full) gave a GI50 (MOLT-4 leukemia) of 2.34 nM, a TGI (MOLT-4 leukemia) of 5.3 nM and a GI50 (DU-145 prostate) of 2.77 nM. The TGI (DU-145 prostate) was 6.98 nM, the GI50 (SNB-75 CNS) was 3.21 nM and 5 nM and the TGI (SNB-75 CNS) was 15.7 nM and 6.16 nM. For the same compound, the GI50 (SK-MEL-5 melanoma) was 1.96 nM and 5 nM, the TGI (SK-MEL-5 melanoma) was 4.28 nM and 6.32 nM and the GI50 (A498 renal) was 3.45 nM and 5 nM. For the same compound, the TGI (A498 renal) was 48.3 nM and 23.7 nM, the GI50 (UACC-62 melanoma) was 6.26 nM and 7.83 nM and the TGI (UACC-62 melanoma) was 21.4 nM and 17.6 nM. The GI50 (RPMI-8226 leukemia) was 4.39 nM, the TGI (RPMI-8226 leukemia) was 74.8 nM and the GI50 (SF-268 CNS) was 3.73 nM and 5 nM. The TGI (SF-268 CNS) was 12.8 nM and 6.07 nM, the GI50 (HCT-116 colon) was 3.62 nM and 5 nM and the TGI (HCT-116 colon) was 11.9 nM and 6.71 nM. The GI50 (K-562 leukemia) was 4.06 nM, the TGI (K-562 leukemia) was 18.1 nM and the GI50 (COLO 205 colon) was 15.3 nM and 7.93 nM. For the same compound, the TGI (COLO 205 colon) was 35.8 nM and 17.1 nM, the GI50 (OVCAR-5 ovarian) was 8.01 nM and 5 nM and the TGI (OVCAR-5 ovarian) was 25.2 nM and 11.9 nM. The GI50 (IGROV1 ovarian) was 4.64 nM and 5 nM, the GI50 (M14 melanoma) was 14.8 nM and 9.18 nM and the TGI (M14 melanoma) was 29.9 nM and 19.9 nM. The GI50 (SN12C renal) was 3.04 nM and 5 nM, the TGI (SN12C renal) was 17 nM and 9.65 nM and the GI50 (SW-620 colon) was 4.45 nM and 5 nM. The TGI (SW-620 colon) was 25.4 nM and 15.4 nM, the GI50 (NCI-H522 lung) was 2.86 nM and the TGI (NCI-H522 lung) was 11.4 nM. The GI50 (NCI-H226 lung) was 2.62 nM and 5.27 nM, the TGI (NCI-H226 lung) was 8.62 nM and 11.3 nM and the GI50 (BT-549 breast) was 3.59 nM and 5 nM. The TGI (BT-549 breast) was 11.8 nM and 6.59 nM, the GI50 (HCT-15 colon) was 4.65 nM and 5 nM and the TGI (HCT-15 colon) was 21.8 nM and 15.5 nM. For the same compound, the GI50 (SK-MEL-28 melanoma) was 5.85 nM and 6.06 nM, the TGI (SK-MEL-28 melanoma) was 20 nM and 13.8 nM and the GI50 (MDA-MB-435) was 4.03 nM and 5.78 nM. For the same compound, the TGI (MDA-MB-435) was 21.2 nM and 19.2 nM, the GI50 (SK-MEL-2 melanoma) was 3.53 nM and 7.62 nM and the TGI (SK-MEL-2 melanoma) was 10.3 nM and 17.7 nM. The GI50 (MCF7 breast) was 3.42 nM and 5 nM, the TGI (MCF7 breast) was 65.4 nM and 14.4 nM and the GI50 (HOP-92 NSCLC) was 3.94 nM and 7.24 nM. For the same compound, the TGI (HOP-92 NSCLC) was 34.2 nM and 29.2 nM, the GI50 (U251 CNS) was 3.82 nM and 5 nM and the TGI (U251 CNS) was 14.1 nM and 9.03 nM. For the same compound, the GI50 (ACHN renal) was 3.49 nM and 5 nM, the TGI (ACHN renal) was 11.9 nM and 5.78 nM and the GI50 (HL-60(TB) leukemia) was 2.27 nM. It also gave a TGI (HL-60(TB) leukemia) of 5.12 nM, a GI50 (HS 578T breast) of 2.24 nM and a TGI (HS 578T breast) of 50.6 nM. The GI50 (OVCAR-3 ovarian) was 3.8 nM and 5 nM, the TGI (OVCAR-3 ovarian) was 12.1 nM and 6.38 nM and the GI50 (CAKI-1 renal) was 3.57 nM and 5 nM. For the same compound, the TGI (CAKI-1 renal) was 24.8 nM and 17.3 nM, the GI50 (SNB-19 CNS) was 6.88 nM and 5 nM and the TGI (SNB-19 CNS) was 50.6 nM and 28.7 nM. The GI50 (SK-OV-3 ovarian) was 3.65 nM and 5 nM, the TGI (SK-OV-3 ovarian) was 12 nM and 6.59 nM and the GI50 (SF-295 CNS) was 3.16 nM and 5 nM. The TGI (SF-295 CNS) was 80.9 nM and 13 nM, the GI50 (HT29 colon) was 4.52 nM and 5 nM and the TGI (HT29 colon) was 17.6 nM and 9.16 nM. The GI50 (NCI/ADR-RES ovarian) was 2.64 nM and 5 nM, the TGI (NCI/ADR-RES ovarian) was 7.55 nM and 6.47 nM and the GI50 (HOP-62 NSCLC) was 1.78 nM. For the same compound, the TGI (HOP-62 NSCLC) was 3.28 nM, the GI50 (LOX IMVI melanoma) was 3.33 nM and 5 nM and the TGI (LOX IMVI melanoma) was 12 nM and 7.7 nM. For the same compound, the GI50 (RXF 393 renal) was 1.79 nM, the TGI (RXF 393 renal) was 3.9 nM and the GI50 (SF-539 CNS) was 2.62 nM and 5 nM. The TGI (SF-539 CNS) was 6.21 nM and 5.68 nM, the GI50 (A549 NSCLC) was 1.78 nM and the TGI (A549 NSCLC) was 3.58 nM. The GI50 (CCRF-CEM leukemia) was 5 nM, the TGI (CCRF-CEM leukemia) was 50000 nM and the GI50 (SR leukemia) was 2.21 nM. For the same compound, the TGI (SR leukemia) was 6.19 nM, the GI50 (PC-3 prostate) was 3.84 nM and the TGI (PC-3 prostate) was 22.1 nM. The GI50 (HCC-2998 colon) was 4.67 nM and 5 nM, the TGI (HCC-2998 colon) was 25.2 nM and 16.5 nM and the GI50 (EKVX NSCLC) was 2.86 nM and 5 nM. The TGI (EKVX NSCLC) was 9.07 nM and 5.58 nM, the GI50 (OVCAR-8 ovarian) was 3.67 nM and 5 nM and the TGI (OVCAR-8 ovarian) was 16.8 nM and 7.2 nM. The GI50 (786-0 renal) was 2.59 nM and 5 nM, the TGI (786-0 renal) was 7 nM and 5.73 nM and the GI50 (UACC-257 melanoma) was 10.6 nM and 5.17 nM. The TGI (UACC-257 melanoma) was 24.2 nM and 11.5 nM, the GI50 (MALME-3M melanoma) was 3.28 nM and 5 nM and the TGI (MALME-3M melanoma) was 9.89 nM and 11.8 nM. For the same compound, the GI50 (KM12 colon) was 4.87 nM and 5 nM, the TGI (KM12 colon) was 25.8 nM and 26.6 nM and the GI50 (UO-31 renal) was 4.64 nM and 5 nM. The TGI (UO-31 renal) was 16.8 nM and 8.11 nM, the GI50 (OVCAR-4 ovarian) was 2.98 nM and the TGI (OVCAR-4 ovarian) was 16.7 nM. The GI50 (T-47D breast) was 4.04 nM and 5 nM, the TGI (T-47D breast) was 19.8 nM and 16.6 nM and the GI50 (TK-10 renal) was 5.08 nM. The TGI (TK-10 renal) was 42.2 nM, the GI50 (MDA-MB-231 breast) was 19.4 nM and 15.6 nM and the TGI (MDA-MB-231 breast) was 100 nM and 60.2 nM. For the same compound, the GI50 (NCI-H23 lung) was 2.93 nM, the TGI (NCI-H23 lung) was 11.4 nM and the GI50 (NCI-H460 lung) was 2.42 nM and 5 nM. The TGI (NCI-H460 lung) was 6.33 nM and 5.12 nM.

Source: PubChem BioAssay (NCI)
